In patent US12234238B2, “Antimicrobial compounds and methods of making and using the same” (BIOVERSYS AG, priority 2017, dated 2025):
Like-named read-outs stand apart in the source and are kept apart here.

Experiments:
[1] = system: Staphylococcus aureus (S. aureus) 11540 strain; experiment: standard microdilution assay to determine minimum inhibitory concentrations (MICs), S. aureus; type: cell-based
How it was run: (§1)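 MICs by broth microdilution in 100 μl final volume following CLSI protocols, with reference strains as quality control. Results presented as +/− relative to a 16 micrograms/mL cutoff.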

[2] = system: Eschericia coli (E. coli) strain ATCC25922; experiment: standard microdilution assay to determine minimum inhibitory concentrations (MICs), E. coli; type: cell-based; details: Escherichia coli
How it was run: as §1

[3] = Rat infusion study: clinical signs and IV plasma pharmacokinetics across infusion lengths; type: in vivo; details: male Sprague-Dawley rats; for Clinical Signs: 4 mg/kg jugular venous infusion, listed as Compound No. 34, 4 mg/kg; for AUC(0-inf) / Cmax / half-life: male, Sprague-Dawley, rat, plasma, iv, 4 mg/kg, 4 mg/kg IV
Description: Many pyrrolocytosines, including Compound No. 34, share an acute clinical syndrome, which manifests in as a Cmax-driven hemodynamic effect and is associated with immediate clinical signs such as labored breathing. Cmax is the peak concentration a molecule reaches in the plasma, in this case directly following intravenous administration, and is expressed generally in micrograms/milliliter. The syndrome is dose-dependent, meaning that the higher the amount of drug given, the more severe the effects. This is generally considered the limiting toxicity for the effected compounds of this class. Importantly, the efficacy for the pyrrolocytosines, including Compound No. 34, is not driven by the Cmax but rather by the AUC (Area-Under-the-plasma-drug-concentration-time-Curve), which is an expression of the total body exposure to the drug and is expressed generally in micrograms*hour/milliliter. In rat studies with several pyrrolocytosines, including Compound No. 34, it has been shown that increasing the length, or duration, of the intravenous administration effectively modulates or eliminates the clinical syndrome, depresses the concentration maximum, results in a short distribution half-life but still affords drug exposures necessary for efficacy.
As an example, a study conducted by PharmOptima under study number 2017-164 with Compound No. 34, compared the clinical signs and plasma drug concentration data across several infusion lengths: 10-minutes, which is the screening length at which the acute syndrome is observed, 1-hour, 2-hour, 3-hour and 24-hour. A total of 15 male Sprague-Dawley rats (275-300 grams) were used in the study, divided evenly across the 5 dosing regimens. The route of drug administration was via jugular venous infusion, using a syringe infusion pump. Compound No. 34 was formulated in phosphate-buffered mannitol, with a starting pH=6.5.
There was a clear decrease in Cmax as infusion length was increased. The intermediate dosing groups still achieved significant AUC, or drug exposures for efficacy, and particularly with the 3 h infusion itis clear that the dose can be increased to move the AUC higher while not approaching the Cmax associated with the severe end of the acute tolerability. The 24 h infusion is particularly compelling. It indicates the concentration can be titrated to achieve steady-state drug levels for efficacy while remaining well below the Cmax associated with clinical signs. […] In the end, this translates into a generous therapeutic window.

In the case of `C[C@H](N)CCCc1cc(Cl)c(F)c(-c2cc3cn(-c4ccc([C@@H]5CCC[C@@H](CCSC(=N)N)N5)cc4)c(=O)nc3[nH]2)c1` [Compound 34], the MIC [1] is reported as at most 16 µg/mL, the MIC [2] is reported as at most 16 µg/mL and the “Clinical Signs” value ([3]; 10-min infusion) is reported as “significant labored breathing”. For the same molecule, the “Clinical Signs” value ([3]; 1 h, 2 h and 3 h infusion groups) was “minor signs of chewing and licking”, the “Clinical Signs” value ([3]; 24 h infusion) was “no clinical signs and none” and the AUC(0-inf) ([3]; 10-min infusion) was 22000 ng·h/mL. The Cmax ([3]; 10-min infusion) was 23600 ng/mL, the AUC(0-inf) ([3]; 1 h infusion) was 14400 ng·h/mL and the Cmax ([3]; 1 h infusion) was 8890 ng/mL. It also gave an AUC(0-inf) ([3]; 2 h infusion) of 14400 ng·h/mL, a Cmax ([3]; 2 h infusion) of 8120 ng/mL and an AUC(0-inf) ([3]; 3 h infusion) of 9150 ng·h/mL. The Cmax ([3]; 3 h infusion) was 3760 ng/mL, the AUC(0-inf) ([3]; 24 h infusion) was 11000 ng·h/mL and the Cmax ([3]; 24 h infusion) was 560 ng/mL. For the same molecule, the half-life ([3]; 10-min infusion, read-out: T½ (h)-alpha (converted)) was 1.01 h, the half-life ([3]; 1 h infusion, read-out: T½ (h)-alpha (converted)) was 0.91 h and the half-life ([3]; 2 h infusion, read-out: T½ (h)-alpha (converted)) was 1.02 h. It also gave a half-life ([3]; 3 h infusion, read-out: T½ (h)-alpha (converted)) of 0.99 h, a half-life ([3]; 24 h infusion, read-out: T½ (h)-alpha (converted)) of 1.01 h and a half-life ([3]; first of two cells, infusion group(s) unclear (grid: 10-min), read-out: T½ (h)-terminal (converted)) of 15.2 h. The half-life ([3]; second of two cells, infusion group(s) unclear (grid: 1 h), read-out: T½ (h)-terminal (converted)) was 15.2 h.
For `C=CCSC(=N)NCC[C@@H]1CCC[C@@H](c2ccc(-n3cc4cc(-c5cc(CCC[C@H](C)N)cc(Cl)c5F)[nH]c4nc3=O)cc2)N1` [Compound 122], the MIC [1] was at most 16 µg/mL and the MIC [2] was at most 16 µg/mL.
